Experimental data: article PMC11939470, “The Cyclic Antimicrobial Peptide C-LR18 Has Enhanced Antibacterial Activity, Improved Stability, and a Longer Half-Life Compared to the Original Peptide” (Antibiotics, 2025)
Where a SMILES comes first, the peptide text is derived from it. Bridges are numbered along the chain shown (N, C = ends).

How the values were obtained:
Gram-negative bacteria = experiment: Geometric mean MIC (MBC) and therapeutic index; format: cell-based; conditions: average MIC against the tested Gram-negative strains
Method: (§1) The MIC test was performed using the method recommended by the National Committee for Clinical Laboratory Standards (NCCLS) Standards and Guidelines, and the method was modified according to the characteristics of antimicrobial peptides. The bacteria were cultured at 37 °C for 16 h, and the microbial suspension was diluted to a final concentration of 5 × 10^5 CFU/mL. Then, 50 µL of bacterial solution was mixed with 50 µL of MHB containing different concentrations peptides (0.5–256 µM) in a 96-well plate. […] The assays were performed three times. Geometric mean MIC represents the average MIC of the peptide against all the tested strains.
MBC detection was performed according to the method of Taiyari et al.. According to the MIC results, 50 µL of bacterial cultures was absorbed from the minimum inhibitory concentration hole and the three previous holes, respectively; transferred to a new MH solid medium; and incubated in an incubator at 37 °C overnight, and the bacteria on the plate were counted. The concentration of antibacterial peptide that kills 99.99% of the tested bacteria is defined as the minimum bactericidal concentration (MBC) of the peptide. The experiment was repeated three times. Geometric mean MBC represents the average […] of the peptide against all the tested strains.

rabbit red blood cells = experiment: Hemolysis activity determination; format: cell-based; conditions: 2% rabbit red blood cells in PBS pH 7.4, 37 °C 1 h, OD 570 nm, repeated three times
Method: Briefly, the collected rabbit red blood cells [purchased from Oumarsi (Shanghai, China) Biotechnology Co., Ltd.] were washed three times with PBS (pH 7.4) and diluted to 2% (v/v). A total of 100 µL of rabbit red blood cells suspension were mixed with 100 µL of PBS (pH 7.4) containing different concentrations of peptides (1–256 µM) in a 96-well plate. The positive control was a mixture of 100 µL of red blood cell suspension and 100 µL of 0.2% TritonX-100 solution, and the negative control was a mixture of 100 µL of red blood cell suspension and 100 µL of PBS solution. The mixtures were incubated at 37 °C for 1 h, then centrifuged at 1000× g for 10 min. The OD value at 570 nm of the supernatant was measured using a microplate reader (TECAN GENios F129004, Tecan, Salzburg, Austria). The hemolytic index was calculated according to the following formula:Hemolytic index % = (OD peptide − ODPBS)/(ODT ritonX-100 − ODPBS) × 100%(2)
The concentration of the antimicrobial peptide causing 10% erythrocyte hemolysis was defined as the minimum hemolytic concentration of the antimicrobial peptide on rabbit red blood cells. The experiment was repeated three times.

E. coli ATCC25922 [1] = experiment: Bactericidal kinetics assay; format: cell-based; conditions: 1 × MIC and 2 × MIC, 1 × 10^6 CFU/mL, 37 °C, dose-dependent, Figure 1f
Method: Bactericidal kinetics assay was performed according to the method outlined by Zhang et al.. […] The mixed solutions were incubated in a shaker at 37 °C. A total of 100 μL of the above mixed solution was absorbed every 20 min and diluted with sterile MH liquid medium, and then 50 μL of bacterial solution was aspirated and evenly coated on the solid MH plate. After incubation at 37 °C for 16–18 h, the bacteria colonies on the plate were counted. The bactericidal kinetics curves of LR18 and C-LR18 against E. coli ATCC25922 were plotted. The experiment was repeated three times.

[2] = system: genomic DNA of E. coli ATCC25922; experiment: DNA binding assay (gel retardation); conditions: 100 ng genomic DNA, 1–512 µM peptide, 37 °C 60 min, 0.8% agarose gel
Method: The DNA binding test was performed according to gel retardation experiments described previously. Firstly, genomic DNA was extracted from E. coli ATCC25922 using a DNA extraction kit. A total of 100 ng of genomic DNA was mixed with 1–512 µM peptide in a binding buffer (50 µg/mL of BSA, 1 mM of ethylene diamine tetra-acetic acid, 20 mM of KCl, 10 mM of Tris-HCl (pH = 8.0), 5% glycerol, and 1 mM of dithiothreitol) and incubated at 37 °C for 60 min. Subsequently, the samples were examined using 0.8% agarose gel electrophoresis. Observation and photography were performed in the UVP gel imaging system, and the electrophoresis mobility was analyzed.

E. coli ATCC25922 [3] = experiment: Stability in artificial gastric and intestinal fluid, read out by MIC assay; format: in vitro ADME
Method: as §1
The stability of LR18 and C-LR18 in protease, serum, and gastrointestinal conditions was determined using MIC assay, as described previously.
The stability in gastrointestinal conditions was also determined. The peptides were diluted in artificial gastric fluid and artificial intestinal fluid, digested in water bath at 37 °C for 0.5 and 1 h, and then inactivated in water bath at 60 °C for 30 min. Then, the PH of the solution was adjusted to 7.0 with 10% Na2CO3. Subsequent steps were the same as for the MIC assay. The assays were performed three times.

E. coli ATCC25922 [4] = experiment: Impact of temperature and pH on MIC; format: physicochemical; conditions: after 100 °C for 30 min, acid treatment (pH4) 1 h, alkali treatment (pH10) 1 h
Method: as §1
The impact of temperature on peptides’ antimicrobial activity was also tested.

[5] = Half-life and pharmacokinetics in SD rats after caudal vein administration (HPLC); format: in vivo
Method: Half-life of peptides in SD rats was determined via HPLC according to the method described in [31]. The SD rats were maintained at constant room temperature [(25 ± 2) °C] with free access to food and water for 48 h. Each SD rat was weighed to an accuracy of 0.10 g, numbered, and grouped randomly, with 6 rats in each group. LR18 and C-LR18 were injected into SD rats via tail vein at a dose of 5 mg/kg body weight. A total of 200 μL of blood was collected from the orbital venous plexus at different time points of 0, 0.5, 0.8, 1.0, 1.5, 2.5, 3.5, 5, 10, 30, and 60 min, and placed into a centrifuge tube containing 0.5% heparin sodium. After centrifugation at 3000 r/min for 15 min, the supernatant was absorbed into a new centrifuge tube, and then acetonitrile containing 0.1% TFA was added at 1/1 volume. Vortexing for 30 s, the samples were centrifuged at 14,000 r/min for 20 min, the supernatant was aspirated and sterilized using a 0.22 μm sterilization filter, and 30 μL of the sample was used for HPLC determination. The pharmacokinetic parameters were calculated using Phoenix Winnonlin 7.0 software and analyzed with non-atrioventricular model. Drug–time curves were plotted using Graphpad Prim, and Mean ± SD was used to interpolate each point during drug–time curve fitting.

KM mice = experiment: Acute toxicity (LD50) in mice, tail vein; format: in vivo; conditions: for Number of Animal Deaths (r) / Survival Rate (q): 10 mice
Method: The health status of mice was observed, and the mortality data of 5 groups of mice were recorded. The LD50 and 95% confidence limit of C-LR18 for mice were calculated according to the following formula:LD50 = log − 1[Xm − i(ΣP − 0.5)](3) (4) SX50=i∑pq/n 95% Confidence limits of LD50 = log − 1(log − 1LD50 ± 1.96SX50)(5)
Xm: dose pair value of maximum dose group, i: the difference between the dose pairs of two adjacent groups, P: animal mortality in each group, ΣP: the sum of the mortality of each group of animals, n: number of animals per group, q: survival rate per dose group, […].

## CC(C)C[C@@H]1NC(=O)[C@H](CCCNC(=N)N)NC(=O)[C@H](CCCNC(=N)N)NC(=O)[C@H](CC(C)C)NC(=O)[C@H](CC(C)C)NC(=O)[C@H](CCCNC(=N)N)NC(=O)[C@H](CC(C)C)NC(=O)[C@@H]2CCCN2C(=O)[C@H](CCCNC(=N)N)NC(=O)[C@H](CCCNC(=N)N)NC(=O)[C@@H]2CCCN2C(=O)[C@H](CC(C)C)NC(=O)[C@H](CCCNC(=N)N)NC(=O)[C@H](CC(C)C)NC(=O)[C@H](CC(C)C)NC(=O)[C@H](CCCNC(=N)N)NC(=O)[C@H](CCCNC(=N)N)NC(=O)[C@H](CC(C)C)NC(=O)[C@@H](N)CSSC[C@@H](C(=O)O)NC1=O [C-LR18] (H-CLRRLLRLPRRPLRLLRRLC-OH; disulfide 1-20; N-terminus and C-terminus assumed)
Gram-negative bacteria
  Geometric mean MIC: 2 µM
Rabbit red blood cells
  MHC10 (lowest concentration inducing 10% hemolysis): 128 µM
E. coli ATCC25922 [1]
  time to complete killing of E. coli ATCC25922: ≤ 100 min
[2]
  concentration exhibiting DNA-binding ability: 64 µM
E. coli ATCC25922 [3]; artificial gastric fluid 30 min
  increase of MIC: 8 times
E. coli ATCC25922 [3]; artificial intestinal fluid 30 min
  increase of MIC: 4 times
E. coli ATCC25922 [3]; artificial intestinal fluid 60 min
  increase of MIC: 16 times
E. coli ATCC25922 [4]
  expansion of MIC: 2 times
[5]; SD rats iv
  half-life in rats relative to LR18: 4.66 times
  prolongation of half-life in rats versus LR18: 10 min
[5]; SD rats, tail vein, 5 mg/kg, HPLC, n = 3
  Cmax: 254.23 ± 6.30 µg/mL
[5]; SD rats, tail vein, 5 mg/kg, non-compartmental, HPLC, n = 3 (method: 6 rats per group)
  AUC0-t: 3376.13 ± 37.72 µg·min/mL
[5]; rat, plasma, iv, SD rats, tail vein, 5 mg/kg, HPLC, n = 3, read-out: MRT0-t (converted)
  MRT: 13.5 min
[5]; rat, plasma, iv, SD rats, tail vein, 5 mg/kg, HPLC, n = 3, read-out: T1/2β (terminal elimination half-life)
  half-life: 12.7 ± 0.79 min
KM mice; 36 mg/kg tail vein
  Number of Animal Deaths (r): 0
  Survival Rate (q): 1
KM mice; 44 mg/kg tail vein
  Number of Animal Deaths (r): 2
  Survival Rate (q): 0.8
KM mice; 53 mg/kg tail vein
  Number of Animal Deaths (r): 5
  Survival Rate (q): 0.5
KM mice; 64 mg/kg tail vein
  Number of Animal Deaths (r): 7
  Survival Rate (q): 0.3
KM mice; 77 mg/kg tail vein
  Number of Animal Deaths (r): 10
  Survival Rate (q): 0
KM mice; Kunming mice, tail vein
  95% confidence limit of LD50: 28.0 to 50.1 mg/kg
